One assay deals with phospho-STAT3. The experiment in a line: Western blot phospho-STAT3. Type of assay: cell-based, human. Particulars: 24 h. The procedure:
Sample preparation: U−2 OS cells seeded in 10 cm Petri dishes were collected and washed with ice-cold PBS and RIPA lysis buffer with PMAF; phosphatase inhibitor was added, and the tubes were placed on ice for 30 min and vortexed for 30 s at intervals of 10 min. The samples were centrifuged at 12,000 g at 4 °C for 15 min, and the supernatants were collected in new centrifuge tubes. The protein samples were placed on ice, and the concentration of each protein sample was measured by the BCA kit (Thermo). The protein concentration was adjusted to the same by milli Q ultrapure water.
Loading and running the gel: Equal amounts of protein were loaded into the wells of the 10% SDS-PAGE gel, along with molecular weight markers, and 15 μg of total protein from the cell lysate was loaded. We then ran the gel for 45 min at 200 V.
Transferring the protein: We prepared the transfer stack as follows: negative plate, sponge, filter paper, gel, PVDF membrane, filter paper, sponge, and positive plate. The transfer was for 90 min at 200 mA.
Antibody staining: We blocked the membrane for 1 h at room temperature using 5% blocking solution, then incubated the membrane with appropriate dilutions of the primary antibody in the blocking solution overnight at 4 °C. We then washed the membrane with TBST reagent 3 times, 5 min each. Then, we incubated the membrane with the recommended dilution of labeled secondary antibody in blocking solution at room temperature for 1 h and washed the membrane with TBST reagent 3 times, 5 min each. For signal development, super-enhanced chemiluminescence detection reagents were added to the surface of the membrane for 1 min, then excess reagent was removed, and the membrane was covered in transparent plastic wrap. Images were acquired using darkroom development techniques for chemiluminescence and analyzed by Image J.
In general terms: Immunoblotting shows a protein as a band on a membrane.

A further assay has as its system NRK−49F cells. The experiment in a line: Cell adhesion against trypsin digestion, NRK−49F cells. Type of assay: cell-based, rat. Particulars: DS-1 6.25, 12.5 μM for 24 h.
For the next assay, the system named is IL6. Description: RT-PCR IL6 mRNA in U−2 OS cells. The class given is cell-based, human. The note with it: 24 h. The method, then: (§1) Total RNA within cells was extracted by the RNAeasy™ Animal Long RNA Isolation Kit with Spin Column (Shanghai, Beyotime); the concentrations and OD260/OD280 and OD230/OD260 values were measured by NanoDrop. Five micrograms of RNA was used for reverse transcription; each sample was diluted to 16 μL, and 4 μL of synthesized premix solution (5×) was added, then the mixtures were placed in a 42 °C water bath for 10 min, then an 80 °C water bath for 10 min to deactivate reverse transcriptase. After reverse transcription, each sample was diluted to 140 μL. PCR amplification was carried out by the ABI700 real-time PCR system, and the amplification reaction was detected with a SYBR probe. After PCR, actin and GAPDH were used as internal references, and the relative standard curve method (2^−ΔΔcT) determined the relative expression of mRNA.

In the next assay the test system is CDK4. The experiment in a line: RT-PCR CDK4 mRNA in U−2 OS cells. The note with it: 24 h. The class given is cell-based, human. The procedure: as §1
In a further assay the test system is FOXO1. The experiment in a line: FOXO1 by immunofluorescence and immunoblotting. The class given is cell-based, human. Particulars: DS−1 3.125, 6.25, and 12.5 μM. The procedure: Figure 3 DS−1 inhibited the expression of transcription factor FOXO1 in U−2 OS cells. (A) U−2 OS cells were treated with DS−1 at 0, 3.125, 6.25, and 12.5 μM, and the changes in FOXO1 were analyzed by immunofluorescent staining, followed by confocal microscopy imaging. (B) U−2OS cells were treated with DS−1 at 0, 3.125, 6.25, and 12.5 μM, and FOXO1 and pFOXO1 were analyzed by Western blot; the changes were presented in histograms (C,D). (E) U−2 OS cells were treated with DS−1 at 6.25 μM for 0, 12, 24, and 48 h, then FOXO1 was analyzed by Western blot, and the changes are presented in the histogram (F). (G) The pFOXO1/FOXO1 value is shown in the histogram. […]
Sample preparation: U−2 OS cells seeded in 10 cm Petri dishes were collected and washed with ice-cold PBS and RIPA lysis buffer with PMAF; phosphatase inhibitor was added, and the tubes were placed on ice for 30 min and vortexed for 30 s at intervals of 10 min. […] The protein samples were placed on ice, and the concentration of each protein sample was measured by the BCA kit (Thermo). […]
Antibody staining: We blocked the membrane for 1 h at room temperature using 5% blocking solution, then incubated the membrane with appropriate dilutions of the primary antibody in the blocking solution overnight at 4 °C. […] Images were acquired using darkroom development techniques for chemiluminescence and analyzed by Image J.

In the next assay the test system is MT-MMP-1. The experiment in a line: RT-PCR MT-MMP-1 mRNA in U−2 OS cells. Type of assay: cell-based, human. The procedure: as §1
The next assay relates to snail. The experiment in a line: RT-PCR snail mRNA in U−2 OS cells. The class given is cell-based, human. Particulars: 24 h. The method, then: as §1
A further assay relates to slug. Description: RT-PCR slug mRNA in U−2 OS cells. Particulars: 24 h. The class given is cell-based, human. The procedure:
as §1

Another assay deals with U−2 OS cells. Description: Cell adhesion: trypsin digestion time, U−2 OS cells. The class given is cell-based, human. The note with it: DS−1 7.5 μM for 24 h, trypsin at 25 °C; control within 120 s. The procedure:
We wondered if there were other pathways affecting cell migration besides EMT signals.
Figure 7 DS−1 enhanced U−2 OS cells’ adhesion. (A) The morphological changes of U−2 OS cells treated with/without DS−1. Cells were treated with 0 and 7.5 μM DS−1 for 24 h, washed with PBS, and digested with trypsin at 25 °C under a microscope, and photos were taken every 30 s. The percentages of digested cells are recorded in (B). (C) Heatmap of genes related to the adherens’ junction in the control group and DS−1 group. (D) U−2 OS cells were treated with 0 and 7.5 μM DS−1 for 24 h, and the expression of CD44 was observed by immunofluorescence. (E,F) CD44 and GAPDH were analyzed by Western blot and calculated by Image J. (G) The relative expression of 4 kinds of MT-MMPs was analyzed by the transcriptome, as shown in the heatmap. (H) After being treated with DS−1, the relative expression of MT-MMP-1 was verified by RT-PCR. Values are the average of three independent experiments, * p < 0.05, ** p < 0.01, *** p < 0.005.

The results in this text go back to article PMC9231138, “Dihydrotanshinone I Enhances Cell Adhesion and Inhibits Cell Migration in Osteosarcoma U−2 OS Cells through CD44 and Chemokine Signaling” (Molecules, 2022).

On to `Cc1cccc2c3c(ccc12)C1=C(C(=O)C3=O)[C@@H](C)CO1` [DS−1, 15,16-Dihydrotanshinone I], for which the “phospho-STAT3, fold of the control group” value came out at 0.59 ± 0.09 fold in the assay with phospho-STAT3 (DS−1 2.5 µM), 0.43 ± 0.03 fold in the assay on phospho-STAT3 (DS−1 5.0 µM) and 0.32 ± 0.03 fold in the assay with phospho-STAT3 (DS−1 7.5 µM). Further, in the assay with phospho-STAT3 (DS−1 2.5, 5.0, and 7.5 µM), the “ratio of pSTAT3/STAT3” value is reported as “significantly decreased”. The “cell adhesion on the cell culture plate against trypsin digestion” value in the assay on NRK−49F cells is “stronger cell adhesion”. Besides, the results for the “IL6 mRNA, fold” value in the assay on IL6 (DS−1 2.5 µM), with IL6 (DS−1 5.0 µM) and in the assay on IL6 (DS−1 7.5 µM) were 0.81 ± 0.09 fold, 0.51 ± 0.07 fold and 0.42 ± 0.12 fold, respectively. Besides, the entries for the “CDK4 mRNA, fold of the control group” value in the assay with CDK4 (first of three DS−1 doses (2.5 µM per Fig. 5 legend)), in the assay with CDK4 (second of three DS−1 doses (5.0 µM per Fig. 5 legend)) and in the assay on CDK4 (third of three DS−1 doses (7.5 µM per Fig. 5 legend)) were 0.53 ± 0.06 fold, 0.37 ± 0.02 fold and 0.29 ± 0.05 fold, respectively. Besides, the “expression of FOXO1” value with FOXO1 is “reduced”. In addition, the results for the “MT-MMP-1 mRNA expression, fold” value in the assay on MT-MMP-1 (DS−1 2.5 µM), in the assay with MT-MMP-1 (DS−1 5.0 µM) and in the assay on MT-MMP-1 (DS−1 7.5 µM) were 0.92 ± 0.14 fold, 0.72 ± 0.03 fold and 0.07 ± 0.13 fold, respectively. Further, the “snail mRNA, fold of the control group” value with snail (DS−1 5.0 µM) came to 0.46 ± 0.05 fold; with snail (DS−1 7.5 µM) it was 0.39 ± 0.03 fold. The “slug mRNA, fold of the control group” value was 0.58 ± 0.13 fold in the assay with slug (DS−1 5.0 µM) and 0.45 ± 0.07 fold in the assay on slug (DS−1 7.5 µM). The “time of trypsin digestion” value in the assay with U−2 OS cells was no more than 210 s.
